# Measurements from patent US9963462B2 (priority 2015, dated 2018).
# System: BH4 levels in SK-N-BE (2) cells
# Experiment: SKN-N-BE (2) cellular assay, BH4 levels by LC-MS
# Assay type: cell-based
# Details: Homo sapiens, SKNBE2, read-out: SK-N-BE(2) IC50, SK-N-BE (2) cells, BH4 levels by LC-MS
row,Structure (SMILES),IC50 [µM]
1,Cc1c(C(=O)N2CC3CC(C(N)=O)CC3C2)cnn1-c1nn2cccc2c(=O)[nH]1 (stereo not shown) [Q-0879],10
2,Cc1c(C(=O)N2CCC(C(F)(F)F)CC2)cnn1-c1nc2ncsc2c(=O)[nH]1 [Q-0433],58
3,Cc1c(C(=O)N2CCN(c3nccs3)CC2)cnn1-c1nn2cccc2c(=O)[nH]1 [Q-0907],0.4
4,Cc1c(C(=O)N2CCN(C(C#N)c3ccc(F)cc3)CC2)cnn1-c1nn2cccc2c(=O)[nH]1 (stereo not shown) [Q-0963],4
5,Cc1c(C(=O)N2CCC(c3nnc4n3CCC4)CC2)cnn1-c1nn2cccc2c(=O)[nH]1 [Q-0983],10
6,Cc1c(C(=O)N2CC3CC(C#N)CC3C2)cnn1-c1nn2cccc2c(=O)[nH]1 (stereo not shown) [Q-0874],1.1
7,"Cc1c(C(=O)N2CCN(CC(F)(F)F)CC2(C)C)cnn1-c1nn2cccc2c(=O)[nH]1 [Q-0949, 2-(4-(2,2-dimethyl-4-(2,2,2-trifluoroethyl)piperazine-1-carbonyl)-5-methyl-1H-pyrazol-1-yl)pyrrolo[1,2-f][1,2,4]triazin-4(3H)-one]",0.2
8,Cc1c(C(=O)N2CCC(n3nccc3C(F)(F)F)CC2)cnn1-c1nn2cccc2c(=O)[nH]1 [Q-0984],0.4
9,COCC1(C#N)CCN(C(=O)c2cnn(-c3nn4cccc4c(=O)[nH]3)c2C)CC1 [Q-0957],1
10,Cc1c(C(=O)N2CCC(C3(C#N)CCC3)CC2)cnn1-c1nn2cccc2c(=O)[nH]1 [Q-0999],0.2
11,Cc1c(C(=O)N2CCC(N3CCCC3=O)CC2)cnn1-c1nn2cccc2c(=O)[nH]1 [Q-0935],1.6
12,Cc1c(C(=O)N2CCN(C(C#N)C(C)C)CC2)cnn1-c1nn2cccc2c(=O)[nH]1 (stereo not shown) [Q-0982],10
13,CCN1CC2CCC(C1)N2C(=O)c1cnn(-c2nn3cccc3c(=O)[nH]2)c1C [Q-0884],0.2
14,COC1CCN(C(=O)c2cnn(-c3nn4cccc4c(=O)[nH]3)c2C)CC1 [Q-0976],1.1
15,Cc1c(C(=O)N2CCN(C3CC4CCC3C4)CC2)cnn1-c1nn2cccc2c(=O)[nH]1 (stereo not shown) [Q-0933],0.2
16,Cc1c(C(=O)N2CCN(CCC#N)CC2)cnn1-c1nn2cccc2c(=O)[nH]1 [Q-0895],1.4
17,Cc1c(C(=O)N2CCC(N3CC[C@@H](F)C3)C2)cnn1-c1nn2cccc2c(=O)[nH]1 (stereo partly shown) [Q-1010],4
18,Cc1c(C(=O)N2CC(CN(C)C(=O)OC(C)(C)C)C2)cnn1-c1nn2cccc2c(=O)[nH]1 [Q-0861],0.4
19,Cc1c(C(=O)N2CCN3C(=O)CC[C@@H]3C2)cnn1-c1nn2cccc2c(=O)[nH]1 [Q-0862],10
20,Cc1c(C(=O)N2CCC(C)CC2)cnn1-c1nn2cccc2c(=O)[nH]1 [Q-1040],0.3
21,Cc1c(C(=O)N2CC(CC(F)(F)F)C2)cnn1-c1nn2cccc2c(=O)[nH]1 [Q-0947],1
22,Cc1c(C(=O)N2CCC23CC(F)(F)C3)cnn1-c1nn2cccc2c(=O)[nH]1 [Q-0900],2.3
23,Cc1c(C(=O)N2CCCC(C)(C#N)C2)cnn1-c1nn2cccc2c(=O)[nH]1 (stereo not shown) [Q-0923],1.3
24,Cc1c(C(=O)N2CC(N3CCC3)C2)cnn1-c1nn2cccc2c(=O)[nH]1 [Q-0985],9.2
25,Cc1c(C(=O)N2CC[C@H](OCc3cnc(Cl)s3)C2)cnn1-c1nn2cccc2c(=O)[nH]1 [Q-0997],1
26,Cc1c(C(=O)N2Cc3cc(C(F)(F)F)cnc3C2)cnn1-c1nn2cccc2c(=O)[nH]1 [Q-1004],3.1
27,Cc1c(C(=O)N2CC3CCCC(C3)C2)cnn1-c1nn2cccc2c(=O)[nH]1 [Q-0934],0.3

row,Structure (SMILES),IC50 [µM]
1,Cc1c(C(=O)N2CCN(C(=O)Cc3ccccc3F)CC2)cnn1-c1nn2cccc2c(=O)[nH]1 [Q-1012],1.3
2,Cc1c(C(=O)N2C3CCC2CN(c2ccc(F)cc2)C3)cnn1-c1nn2cccc2c(=O)[nH]1 [Q-0880],0.087
3,Cc1c(C(=O)N2CCC(N3CCC[C@H]3C(F)(F)F)CC2)cnn1-c1nn2cccc2c(=O)[nH]1 [Q-1029],1
4,Cc1c(C(=O)N2C3CCC2CN(c2ccc(C(F)(F)F)cc2)C3)cnn1-c1nn2cccc2c(=O)[nH]1 [Q-0870],0.3
5,Cc1c(C(=O)N2CCn3c(nnc3C3CC3)C2)cnn1-c1nn2cccc2c(=O)[nH]1 [Q-0868],10
6,Cc1c(C(=O)N2C3CCCC2CN(Cc2ccccc2)C3)cnn1-c1nn2cccc2c(=O)[nH]1 [Q-0989],0.9
7,Cc1c(C(=O)N2CCC(C3(C#N)CCCC3)CC2)cnn1-c1nn2cccc2c(=O)[nH]1 [Q-0988],0.069
8,Cc1c(C(=O)N2CCCC(c3n[nH]c(C4CC4)n3)C2)cnn1-c1nn2cccc2c(=O)[nH]1 (stereo not shown) [Q-0955],10
9,Cc1c(C(=O)N2CCn3cc(C(F)(F)F)nc3C2)cnn1-c1nn2cccc2c(=O)[nH]1 [Q-0871],4
10,CCCC(C#N)C1CCN(C(=O)c2cnn(-c3nn4cccc4c(=O)[nH]3)c2C)CC1 (stereo not shown) [Q-0858],0.044
11,Cc1c(C(=O)N2CCC(C(F)(F)F)C3(CCC3)C2)cnn1-c1nn2cccc2c(=O)[nH]1 (stereo not shown) [Q-0960],0.2
12,Cc1c(C(=O)N2CCC3(CCOC3)C2)cnn1-c1nn2cccc2c(=O)[nH]1 (stereo not shown) [Q-0922],1
13,Cc1c(C(=O)N2CC3CCCC(C2)N3CCC(F)(F)F)cnn1-c1nn2cccc2c(=O)[nH]1 [Q-1036],0.07
14,Cc1c(C(=O)N2CCC(n3ccnc3)CC2)cnn1-c1nn2cccc2c(=O)[nH]1 [Q-0942],9.1
15,Cc1c(C(=O)N2CCC3C(CCN3C(=O)OC(C)(C)C)C2)cnn1-c1nn2cccc2c(=O)[nH]1 (stereo not shown) [Q-0865],0.1
16,CCC(C#N)C1CCN(C(=O)c2nnn(-c3nn4cccc4c(=O)[nH]3)c2C)CC1 (stereo not shown) [Q-1017],0.3
17,Cc1c(C(=O)N2CC3(CCCC3)C2)cnn1-c1nc2c(c(=O)[nH]1)CCC2 [Q-0931],0.2
18,Cc1c(C(=O)N2CCC(F)(c3ccc(F)cc3)C2)cnn1-c1nn2cccc2c(=O)[nH]1 (stereo not shown) [Q-0996],1.9
19,Cc1c(C(=O)N2CCC(N3CCC[C@H](F)C3)C2)cnn1-c1nn2cccc2c(=O)[nH]1 (stereo partly shown) [Q-1026],1.7
20,Cc1c(C(=O)N2C3CCC2CN(c2ccc(Cl)cc2)C3)cnn1-c1nn2cccc2c(=O)[nH]1 [Q-0894],0.1
21,Cc1c(C(=O)N2C3CCC2CN(c2ccccc2)C3)cnn1-c1nn2cccc2c(=O)[nH]1 [Q-0875],0.076
22,Cc1c(C(=O)N2C3CCC2CN(c2cccc(F)c2)C3)cnn1-c1nn2cccc2c(=O)[nH]1 [Q-0876],0.088
23,"Cc1c(C(=O)N2CC[C@@H](C(F)(F)F)C[C@H]2C)cnn1-c1nc2c(c(=O)[nH]1)CCC2 (single isomer, unassigned) [Q-0442]",0.2
24,Cc1c(C(=O)N2CCC3CN(C(=O)OC(C)(C)C)CC32)cnn1-c1nn2cccc2c(=O)[nH]1 (stereo not shown) [Q-0914],0.6
25,Cc1c(C(=O)N2CC(N3CCC(F)CC3)C2)cnn1-c1nn2cccc2c(=O)[nH]1 [Q-1021],1
26,Cc1c(C(=O)N2CCN3C(=O)CC[C@H]3C2)cnn1-c1nn2cccc2c(=O)[nH]1 [Q-0872],10
27,Cc1c(C(=O)N2C3CCC2CN(c2ccc(C#N)cn2)C3)cnn1-c1nn2cccc2c(=O)[nH]1 [Q-0877],0.2

row,Structure (SMILES),IC50 [µM]
1,Cc1c(C(=O)N2CC(N3CC(F)C3)C2)cnn1-c1nn2cccc2c(=O)[nH]1 [Q-0981],1.4
2,Cc1c(C(=O)N2C[C@@H]3[C@@H](CF)[C@@H]3C2)cnn1-c1nn2cccc2c(=O)[nH]1 [Q-0961],0.7
3,Cc1c(C(=O)N2CCC(F)(F)C2)cnn1-c1nn2cccc2c(=O)[nH]1 [Q-1050],1.4
4,O=C(c1cn(-c2nn3cccc3c(=O)[nH]2)nc1Cl)N1CCC(C(F)(F)F)CC1 [Q-0991],0.1
5,Cc1c(C(=O)N2CCN(c3nnc(C(F)(F)F)s3)CC2)cnn1-c1nn2cccc2c(=O)[nH]1 [Q-0975],1.3
6,Cc1c(C(=O)N2CC3(C2)CC(F)(F)C3)cnn1-c1nc2c(c(=O)[nH]1)CCC2 [Q-1023],0.7
7,Cc1c(C(=O)N2CC(N3CC[C@H](F)C3)C2)cnn1-c1nn2cccc2c(=O)[nH]1 [Q-1031],2.3
8,Cc1c(C(=O)N2CC3(CN(CC(F)F)C3)C2)cnn1-c1nn2cccc2c(=O)[nH]1 [Q-0945],1
9,Cc1c(C(=O)N2C[C@H]3C[C@@H]2CN3C(=O)OC(C)(C)C)cnn1-c1nn2cccc2c(=O)[nH]1 [Q-0860],1
10,Cc1c(C(=O)N2CCC3(CC2)OCc2ccccc23)cnn1-c1nn2cccc2c(=O)[nH]1 [Q-0909],0.1
11,Cc1c(C(=O)N2CC3CC2C[C@H]3C#N)cnn1-c1nn2cccc2c(=O)[nH]1 (stereo partly shown) [Q-1002],3.4
12,"Cc1c(C(=O)N2CC[C@H](C(F)(F)F)C[C@@H]2C)cnn1-c1nc2c(c(=O)[nH]1)CCC2 (single isomer, unassigned) [Q-0459]",0.059
13,Cc1ccc(OC2CC3CCC(C2)N3C(=O)c2cnn(-c3nn4cccc4c(=O)[nH]3)c2C)cc1 (stereo not shown) [Q-0974],0.1
14,Cc1c(C(=O)N2CC[C@@H]3CN(C(=O)OC(C)(C)C)C[C@@H]32)cnn1-c1nn2cccc2c(=O)[nH]1 [Q-0897],0.5
15,Cc1c(C(=O)N2CCC(N3CCC(F)(F)C3)C2)cnn1-c1nn2cccc2c(=O)[nH]1 (stereo not shown) [Q-0994],3
16,Cc1c(C(=O)N2CCC(C(F)(F)F)C2(C)C)cnn1-c1nn2cccc2c(=O)[nH]1 (stereo not shown) [Q-0959],1
17,Cc1c(C(=O)N2Cc3cc(Cl)cnc3C2)cnn1-c1nn2cccc2c(=O)[nH]1 [Q-1013],1.5
18,Cc1c(C(=O)N2CCC(C(F)(F)F)CC2)cnn1-c1nn2cccc2c(=O)[nH]1 [Q-0533],0.069
19,Cc1c(C(=O)N2C3CCC2CN(c2ccccn2)C3)cnn1-c1nn2cccc2c(=O)[nH]1 [Q-0882],0.2
20,Cc1c(C(=O)N2CCN(C(=O)OC(C)(C)C)CC2C)cnn1-c1nn2cccc2c(=O)[nH]1 (stereo not shown) [Q-0885],0.4
21,Cc1c(C(=O)N2CCN(CCS(C)(=O)=O)CC2)cnn1-c1nn2cccc2c(=O)[nH]1 [Q-0901],10
22,Cc1c(C(=O)Nc2ccc(F)cc2C(C)(C)O)cnn1-c1nn2cccc2c(=O)[nH]1 [Q-1008],0.3
23,Cc1c(C(=O)N2CC(OCC(F)F)C2)cnn1-c1nn2cccc2c(=O)[nH]1 [Q-0979],1.4
24,Cc1c(C(=O)N2CC3CCC2c2ccccc23)cnn1-c1nn2cccc2c(=O)[nH]1 (stereo not shown) [Q-0965],0.1
25,Cc1c(C(=O)N2CC(Cc3ccc(C(F)(F)F)cc3)C2)cnn1-c1nn2cccc2c(=O)[nH]1 [Q-0940],0.8
